From patent publication US4996214A, “Quinolinyl substituted phenyl/thioalkanoic acid substituted propionic acids and leucotriene antagonist use thereof” (SmithKline Beecham Corporation, priority 1990, dated 1991)

Target: T1, LTD4 (Cavia porcellus, UniProt Q2NNR5)
T1 construct: tracheal spiral strips of approximate dimensions 2 to 3 mm cross-sectional width; from tissue; host or cells: guinea pig (adult male albino Hartley) tracheal spiral strips
T1 sequence (Q2NNR5 1-340): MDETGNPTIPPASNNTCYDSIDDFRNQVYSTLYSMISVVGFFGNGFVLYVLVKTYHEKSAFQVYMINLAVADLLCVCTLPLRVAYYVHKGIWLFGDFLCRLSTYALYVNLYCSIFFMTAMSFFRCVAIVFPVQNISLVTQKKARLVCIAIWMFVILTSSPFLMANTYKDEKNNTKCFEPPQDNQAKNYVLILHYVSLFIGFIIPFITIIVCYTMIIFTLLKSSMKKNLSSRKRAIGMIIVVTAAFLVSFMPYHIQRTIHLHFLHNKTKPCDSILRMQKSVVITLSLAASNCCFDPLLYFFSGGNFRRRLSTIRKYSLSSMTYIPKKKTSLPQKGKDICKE
Assay: inhibition of leukotriene (LTD4) induced contraction of guinea pig tracheal tissues in vitro
Assay type: cell-based
Protocol: The leukotriene antagonist activity of the compounds of this invention was measured by the ability of the compounds to inhibit the leukotriene induced contraction of guinea pig tracheal tissues in vitro. The following methodology was employed: In vitro: Guinea pig (adult male albino Hartley strain) tracheal spiral strips of approximate dimensions 2 to 3 mm cross-sectional width and 3.5 cm length were bathed in modified Krebs buffer in jacketed 10 ml tissue bath and continuously aerated with 95% O2 /5% CO2. The tissues were connected via silk suture to force displacement transducers for recording isometric tension. The tissues were equilibrated for 1 hour, pretreated for 15 minutes with meclofenamic acid ([…]) to remove intrinsic prostaglandin responses, and then pretreated for an additional 30 minutes with either the test compound or vehicle control. […]
Calculations: The averages of the triplicate LTD4 concentration-response curves both in the presence and absence of the test compound were plotted on log graph paper. The concentration of LTD4 needed to elicit 30% of the contraction elicited by carbachol was measured and defined as the EC30. The -log KB value for the test compound was determined by the following equations: [formula] […]
The antagonist activity of representative compounds of this invention is tabulated below. The -log KB values were calculated from the above test protocols. […]

`O=C(O)CCSC(CC(=O)O)c1ccccc1CCCCCCCc1ccc2ccc(Cl)cc2n1` (centres unmarked) [3-{2-[7-(2-(7-Chloro)quinolinyl)heptyl]phenyl}-3,3'-thiodipropionic acid] was tested, and the Kb (LTD4 concentration-response on guinea pig tracheal spiral strips, EC30 shift, 30 min pretreatment with test compound, read-out: pKB (-log KB) (converted)) was 31.6 nM and the Ki (stated as 'in this assay', separate method not given) was 7.7 nM.
